Common to all, as to type: functional
Assay [1] concerns KB. In words: Cytotoxicity against human KB cells. Particulars: for EC50: Homo sapiens, KB, read-out: ED50 (the source's name).
Assay [2] has as its system P388. In words: Cytotoxicity against mouse P388 cells. Particulars: for EC50: Mus musculus, P388, read-out: ED50 (the source's name).
Assay [3] concerns HT-29. In words: Cytotoxicity against human HT-29 cells. To be noted: for EC50: Homo sapiens, HT-29, read-out: ED50 (the source's name).
Assay [4] relates to A549. In words: Cytotoxicity against human A549 cells. Particulars: for EC50: Homo sapiens, A549, read-out: ED50 (the source's name).
Assay [5] deals with MCF7. In words: Cytotoxicity against human MCF7 cells. To be noted: for EC50: Homo sapiens, MCF7, read-out: ED50 (the source's name).

This is an account of results in ChEMBL document CHEMBL1147380, “Studies on the acetogenins of Formosan annonaceous plants. II. Cytotoxic acetogenins from Annona reticulata” (1993).

Values after ≈ are worked out from the molar mass of the structure shown.

Turning to `CCCCCCCCCCCC[C@H](O)[C@@H]1CC[C@@H]([C@@H](O)CCCCCC(O)CCCCC(O)CC2=CC(C)OC2=O)O1` (some centres not stated) [ANNORETICUIN], the EC50 came to 3.37 µg/mL (≈ 5.65 µM) in assay [1], 1 µg/mL (≈ 1.68 µM) in assay [2], 2.28 µg/mL (≈ 3.82 µM) in assay [3] and 0.4 µg/mL (≈ 0.67 µM) in assay [4].

On to `CCCCCCCCCCCC[C@H](O)[C@@H]1CC[C@@H]([C@@H](O)CCCCCCCCCCCCCCC2=CC(C)OC2=O)O1` (some centres not stated) [RETICULATACIN], for which the EC50 in assay [5] is 2.91 µg/mL (≈ 4.91 µM); in assay [3], 4.66 µg/mL (≈ 7.86 µM); in assay [4] it was 3.49 µg/mL (≈ 5.89 µM).

`CCCCCCCCCC[C@@H](O)[C@@H]1CC[C@@H]([C@@H]2CC[C@@H]([C@H](O)CCCCCCCCCC(O)CC3=CC(C)OC3=O)O2)O1` (stereo in doubt; 7) [BULLATACIN]: the results for the EC50 in assay [1] and in assay [4] were 10 µg/mL (≈ 16.4 µM) and 0.001 µg/mL (≈ 0.00164 µM), respectively.

For `CCCCCCCCCCCC[C@H](O)[C@@H]1CC[C@@H]([C@@H](O)CCCCCC(=O)CCCCC2CC(CC(C)=O)C(=O)O2)O1` (some centres not stated) [SQUAMONE], the EC50 worked out at 1.5 µg/mL (≈ 2.52 µM) in assay [1], 5.6 µg/mL (≈ 9.41 µM) in assay [2], 2.14 µg/mL (≈ 3.6 µM) in assay [5] and 1.34 µg/mL (≈ 2.25 µM) in assay [4].

With `CCCCCCCCCCCC[C@H](O)[C@@H]1CC[C@@H]([C@@H](O)CCCCCC(=O)CCCCC(O)CC2=CC(C)OC2=O)O1` (some centres not stated), the EC50 in assay [1] came to 4.66 µg/mL (≈ 7.83 µM); in assay [2] it was 0.2 µg/mL (≈ 0.336 µM); in assay [3], 1.32 µg/mL (≈ 2.22 µM); in assay [4], 0.01 µg/mL (≈ 0.0168 µM).

Take `CCCCCCCCCCCC[C@@H](O)[C@H]1CC[C@H]([C@H](O)CCCC[C@H](O)CCCCC[C@@H](O)CC2=CC(C)OC2=O)O1` (some centres not stated) [ANNONACIN]: the figures for the ED50 in assay [1] and in assay [2] were 1 ×10⁻⁴ ug/ml and 1 ×10⁻⁵ ug/ml, respectively. Moreover, the EC50 is 3 µg/mL (≈ 5.03 µM) in assay [3] and 0.001 µg/mL (≈ 0.00168 µM) in assay [4].

As for `CCCCCCCCCCCC[C@H](O)[C@@H]1CC[C@@H]([C@@H](O)CCCCCC(O)CCCCC2CC(CC(C)=O)C(=O)O2)O1` (some centres not stated) [ISOANNORETICUIN], the EC50 in assay [1] was determined as 6.96 µg/mL (≈ 11.7 µM); in assay [2], 3.6 µg/mL (≈ 6.03 µM); in assay [3], 3.06 µg/mL (≈ 5.13 µM); in assay [4], 0.4 µg/mL (≈ 0.67 µM).

As to `CCCCCCCCCCCC[C@H](O)[C@@H]1CC[C@@H]([C@@H](O)CCCCC(=O)CCCCCC2CC(CC(C)=O)C(=O)O2)O1` (some centres not stated) [ISOANNONACINONE], the figures for the EC50 in assay [2], in assay [3] and in assay [4] were 0.5 µg/mL (≈ 0.841 µM), 0.009 µg/mL (≈ 0.0151 µM) and 0.07 µg/mL (≈ 0.118 µM), respectively.

`CCCCCCCCCCCC[C@@H](O)[C@H]1CC[C@H]([C@H](O)CCCCC(=O)CCCCC[C@@H](O)CC2=C[C@H](C)OC2=O)O1` [ANNONACINONE]: the figures for the EC50 in assay [1], in assay [3] and in assay [4] were 0.01 µg/mL (≈ 0.0168 µM), 1 µg/mL (≈ 1.68 µM) and 0.1 µg/mL (≈ 0.168 µM), respectively. Also, in assay [2], the ED50 is on record as 1 ×10⁻⁶ ug/ml.

With `CCCCCCCCCCCC[C@H](O)[C@@H]1CC[C@@H]([C@@H](O)CC(O)CCCCC(O)CCCC(O)CC2=CC(C)OC2=O)O1` (some centres not stated) [ANNOMONICIN], the EC50 in assay [1] was found to be 2.29 µg/mL (≈ 3.74 µM); in assay [2] it was 0.24 µg/mL (≈ 0.392 µM).

For `CCCCCCCCCCCC[C@@H](O)[C@H]1CC[C@H]([C@H](O)CCCCCCCCCCCCC2=C[C@H](C)OC2=O)O1` [REL-SOLAMIN], the EC50 in assay [1] turned out to be 0.3 µg/mL (≈ 0.531 µM); in assay [2], 0.04 µg/mL (≈ 0.0708 µM).

Turning to `CCCCCCCCCC[C@@H](O)[C@@H]1CC[C@@H]([C@@H]2CC[C@@H]([C@H](O)CCCCCCCCCC(O)CC3=CC(C)OC3=O)O2)O1` (stereo in doubt; 13) [BULLATACIN], the ED50 in assay [5] was less than 1 ×10⁻⁵ ug/ml; in assay [3], less than 1 ×10⁻³ ug/ml; in assay [4], less than 1 ×10⁻⁵ ug/ml.

Consider `CCCCCCCCCCCC[C@H](O)[C@@H]1CC[C@@H]([C@@H](O)CCCCC(O)CCCCCC2CC(CC(C)=O)C(=O)O2)O1` (some centres not stated) [ISOANNONACIN], for which the EC50 in assay [2] amounted to 3 µg/mL (≈ 5.03 µM); in assay [3], 0.002 µg/mL (≈ 0.00335 µM); in assay [4] it was 0.02 µg/mL (≈ 0.0335 µM).
